Assay results reported in paper PMC4261997 (British Journal of Pharmacology, 2014).

Columns and labels:
human β1-adrenoceptor [1] = molecular target: T1, human β1-adrenoceptor (Homo sapiens, UniProt P08588); test: CRE-mediated SPAP transcription reporter gene assay in CHO-β1 cells; type: cell-based; conditions: for Proportion of low-affinity secondary site (site 2) bound: calculated from affinity values of the functional responses
human β1-adrenoceptor [2] = molecular target: T1, human β1-adrenoceptor; test: Automated live cell BODIPY-TMR-CGP binding, ImageXpress ultra confocal plate reader, CHO-β1 cells; conditions: 100 nM BOD-CGP; from two-site inhibition curve of the named antagonist, 1 h incubations
β2-adrenoceptor = conditions: read-out: affinity value for the β2-adrenoceptor; ref Baker et al., [2003b]; cited from earlier work

T1 sequence (P08588 whole entry): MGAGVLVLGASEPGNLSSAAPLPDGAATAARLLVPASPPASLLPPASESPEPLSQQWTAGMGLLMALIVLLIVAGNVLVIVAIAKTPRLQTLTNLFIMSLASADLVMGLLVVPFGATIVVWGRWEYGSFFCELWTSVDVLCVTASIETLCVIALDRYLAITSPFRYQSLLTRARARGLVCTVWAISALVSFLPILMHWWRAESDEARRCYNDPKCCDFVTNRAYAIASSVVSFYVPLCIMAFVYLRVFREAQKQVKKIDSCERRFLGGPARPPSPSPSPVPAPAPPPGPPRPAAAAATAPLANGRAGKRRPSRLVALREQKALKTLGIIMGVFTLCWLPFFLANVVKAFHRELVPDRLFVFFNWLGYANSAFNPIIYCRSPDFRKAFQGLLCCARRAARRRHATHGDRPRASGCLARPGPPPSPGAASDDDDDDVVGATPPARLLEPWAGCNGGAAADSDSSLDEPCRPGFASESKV

Bordifluoropyrromethane-tetramethylrhodamine-(±)CGP 12177 [BODIPY-TMR-CGP]
Proportion of low-affinity secondary site (site 2) bound (human β1-adrenoceptor [1]; 2 nM BODIPY-TMR-CGP): 2% | Proportion of low-affinity secondary site (site 2) bound (human β1-adrenoceptor [1]; 20 nM BODIPY-TMR-CGP): circa 17% | EMAX (% cimaterol) (human β1-adrenoceptor [1]; % of the maximum cimaterol response, CHO-β1 cells): 25.6 ± 3.2 % | pEC50 (human β1-adrenoceptor [1]; agonist stimulation of SPAP transcription, CHO-β1 cells): 7.12 ± 0.13 | pKD (against CGP 12177) (human β1-adrenoceptor [1]; antagonism of CGP 12177 concentration-response curves, low-affinity site 2): 7.28 ± 0.22 | pKD (against cimaterol) (human β1-adrenoceptor [1]; antagonism of cimaterol concentration-response curves, high-affinity site 1): 9.23 ± 0.06 | pKA (partial agonism) (human β1-adrenoceptor [1]; from partial agonist concentration-response curve, operational model, cimaterol as full agonist, site 2): 7.06 ± 0.13 | Fraction of BOD-CGP bound to the low-affinity binding site (%) (human β1-adrenoceptor [2]): 42.8 ± 0.9% | Kd (β2-adrenoceptor): 25 nM
